Data as given in patent US4225593A, “Growth promotion” (Imperial Chemical Industries Limited, priority 1977, dated 1980).

What was measured:
chick kidney cells = test: Toxic effects on the host cells (chick kidney cells) in the anticoccidial test; type: cell-based; details: only shows toxic effects at this concentration
rumen fluid = test: Inhibition of methane production and shift of volatile fatty acids in incubated rumen fluid (in vitro fermentation of hay); design: species or system steers; details: for % methane in total gas: 39° C., 15-16 hours, control 8.37; for Ac/Bu: acetate/butyrate, control 3.92; for Ac/Pr: acetate/propionate, control 1.90; for % inhibition of methane / Ac/Bu, expressed as percentage of untreated controls / Ac/Pr, expressed as percentage of untreated controls: relative to untreated controls; for Ac/Bu, expressed as percentage of untreated controls / Ac/Pr, expressed as percentage of untreated controls: signed values
Method: Rumen fluid is collected on a regular routine basis from two steers, which are fed on the same hay-plus-concentrate diet. Sampling time is standarised as far as possible, and the fluid from the two animals is pooled on a 50/50 basis. Large particulate matter is removed by filtering the pooled fluid through four layers of muslin cloth. The filtrate is then diluted in the ratio of one volume of filtrate to three volumes of an artificial rumen fluid (prepared as described by G. L. Bales et al., Journal of Diary Science, 1976, volume 59, page 1850, but omitting acetic acid), and the pH of the mixture is adjusted to 6.9-7.0 with saturated aqueous sodium carbonate solution. Aliquots (50 ml.) of this mixture are dispensed into 100 ml. conical flasks containing dried ground hay (0.5 g.), and each flask is used to test a test compound at a particular concentration.
The test compound is added to the conical flask as a solution in ethanol, the flask is flushed with carbon dioxide gas, stoppered with a suba-seal, and incubated at 39° C. for 15-16 hours. After one hour, a narrow bore needle is inserted through the suba-seal to relieve the gas pressure, and the needle is withdrawn 30 minutes before the incubation is ended. Fermentation is then stopped by placing the flask in ice, and after 15 minutes cooling, the gas over the liquid is analysed for methane by gas chromatrography. The flask contents are then filtered through a previously dried and weighed sintered glass funnel, the funnel is oven-dried and, by difference, the weight of hay digested is determined. (Blank flasks containing no hay are treated similarly to determine non-cellulose residue). Three samples of the filtrate are analysed by gas chromatography for VFAs, and by comparison with the previously determined, pre-incubationlevel of VFAs, the net VFAs (acetate, propionate and butyrate) produced during the incubation is determined.
The test process described in Example 2 was repeated, comparing aplasmomycin with Factor B and C. The following results were obtained, expressed as percentages of the values obtained in untreated controls: […]

Eimeria tenella = test: Anticoccidial activity: preventing coccidial growth in cultures of chick kidney cells inoculated with sporozites; type: cell-based; details: for anticoccidial activity (in words): cultures of chick kidney cells
[1] = tested on: rumen metabolism of sheep; test: Short term effects on the rumen metabolism of sheep (rumen V.F.A. composition); type: in vivo; details: 6 hours after treatment
Method: The rumen fermentation patterns of a group of sheep were stabilised by feeding them a standard diet of dried grass (2×500 g. per day) for some months. Six test animals were used for each inclusion level of each test compound. […] Samples of rumen fluid were collected by stomach tube from each animal 6 hours after treatment, and analysed by gas-chromatography for acetate, propionate and butyrate.

[2] = Day 4, 0.25 mg/kg, control 10.2
[3] = Day 4, 0.25 mg/kg, control 24.0
[4] = Day 4, 0.25 mg/kg, control 64.5
[5] = Day 7, 0.25 mg/kg, control 10.7
[6] = Day 7, 0.25 mg/kg, control 22.9
[7] = Day 7, 0.25 mg/kg, control 65.6

Compound	% methane in total gas (rumen fluid; 0.1 μg./ml.) [%]	Ac/Bu (rumen fluid; 0.1 μg./ml.)	% inhibition of methane (rumen fluid; 1 ppm) [%]	Ac/Bu, expressed as percentage of untreated controls (rumen fluid; 1 ppm)	Ac/Pr, expressed as percentage of untreated controls (rumen fluid; 1 ppm) [percentages]	% inhibition of methane (rumen fluid; 3 ppm) [%]	Ac/Bu, expressed as percentage of untreated controls (rumen fluid; 3 ppm)	Ac/Pr, expressed as percentage of untreated controls (rumen fluid; 3 ppm) [percentages]	anticoccidial activity (in words) (Eimeria tenella)	Molar % rumen V.F.A.: Butyrate [1, 2] [Molar %]	Molar % rumen V.F.A.: Propionate [1, 3] [Molar %]	Molar % rumen V.F.A.: Acetate [1, 4] [Molar %]	Molar % rumen V.F.A.: Butyrate ([1]; Day 4, 0.5 mg/kg, control 10.2) [Molar %]	Molar % rumen V.F.A.: Propionate ([1]; Day 4, 0.5 mg/kg, control 24.0) [Molar %]	Molar % rumen V.F.A.: Acetate ([1]; Day 4, 0.5 mg/kg, control 64.5) [Molar %]	Molar % rumen V.F.A.: Butyrate [1, 5] [Molar %]	Molar % rumen V.F.A.: Propionate [1, 6] [Molar %]	Molar % rumen V.F.A.: Butyrate ([1]; Day 7, 0.5 mg/kg, control 10.7) [Molar %]	Molar % rumen V.F.A.: Propionate ([1]; Day 7, 0.5 mg/kg, control 22.9) [Molar %]	Molar % rumen V.F.A.: Acetate ([1]; Day 7, 0.5 mg/kg, control 65.6) [Molar %]	other results
C[C@@H]1CC[C@@H]2O[C@]13O[B-]14O[C@H]3C(=O)O[C@H]3C[C@@H](/C=C/C[C@@H](O)C(C)(C)[C@@H]5CC[C@@H](C)[C@](O5)(O1)[C@@H](O4)C(=O)O[C@H]1C[C@@H](/C=C/C[C@@H](O)C2(C)C)O[C@@H]1C)O[C@@H]3C.[Na+] [Aplasmomycin, aplasmomycin]	7.87	4.22	57	-36 percentages	-41	69	-49 percentages	-40	show anticoccidial activity	9.8	25.1	63.7	9.9	25.5	63.4	9.9	24.8	9.2	26.6	62.6	concentration showing toxic effects on the host cells (chick kidney cells): 9 ppm; Ac/Pr (rumen fluid; 0.1 μg./ml.): 1.63; % methane in total gas (rumen fluid; 0.3 μg./ml.): 5.72%; Ac/Bu (rumen fluid; 0.3 μg./ml.): 4.75; Ac/Pr (rumen fluid; 0.3 μg./ml.): 1.36; % methane in total gas (rumen fluid; 0.5 μg./ml.): 4.87%; Ac/Bu (rumen fluid; 0.5 μg./ml.): 4.56; Ac/Pr (rumen fluid; 0.5 μg./ml.): 1.29; % methane in total gas (rumen fluid; 1 μg./ml.): 3.81%; Ac/Bu (rumen fluid; 1 μg./ml.): 4.26; Ac/Pr (rumen fluid; 1 μg./ml.): 1.26; % methane in total gas (rumen fluid; 3 μg./ml.): 2.58%; Ac/Bu (rumen fluid; 3 μg./ml.): 3.52; Ac/Pr (rumen fluid; 3 μg./ml.): 1.34; effect on the overall digestive process (in words) (rumen fluid; rumen fluid, weight of hay digested): without at the same time depressing the overall digestive process; concentration showing activity against Eimeria tenella (Eimeria tenella; cultures of chick kidney cells inoculated with sporozites): 0.037 ppm; Molar % rumen V.F.A.: Acetate [1, 7]: 63.8 Molar %
CC(=O)OC1C/C=C/C2CC(OC(=O)C3O[B-]45OC(C(=O)OC6CC(/C=C/CC(O)C(C)(C)C7CCC(C)C3(O7)O4)OC6C)C3(OC(CCC3C)C1(C)C)O5)C(C)O2 (centres unmarked) [Factor B]			63	+21 percentages	-48	76	-18 percentages	-45	show anticoccidial activity	11.3	22.3	65.1	11.3	22.4	65.0	11.7	22.1	8.9	25.9	63.5	Molar % rumen V.F.A.: Acetate [1, 7]: 63.5 Molar %
CC(=O)OC1C/C=C/C2CC(OC(=O)C3O[B-]45OC(C(=O)OC6CC(/C=C/CC(OC(C)=O)C(C)(C)C7CCC(C)C3(O7)O4)OC6C)C3(OC(CCC3C)C1(C)C)O5)C(C)O2 (centres unmarked) [Factor C]			15	+18 percentages	-33	44	+22 percentages	-41	show anticoccidial activity												
CC[C@@]1([C@@H]2O[C@@H]([C@H]3O[C@@](O)(CO)[C@H](C)C[C@@H]3C)C[C@@H]2C)CC[C@H]([C@]2(C)CC[C@]3(C[C@H](O)[C@@H](C)[C@@H]([C@@H](C)[C@@H](OC)[C@H](C)C(=O)O)O3)O2)O1 [Monensin, monensin, reference compound]	8.35	4.22								9.9	28.5	60.5	11.3	27.8	59.8	11.4	26.1	12.6	26.2	60.2	Ac/Pr (rumen fluid; 0.1 μg./ml.): 1.80; % methane in total gas (rumen fluid; 0.3 μg./ml.): 7.53%; Ac/Bu (rumen fluid; 0.3 μg./ml.): 4.11; Ac/Pr (rumen fluid; 0.3 μg./ml.): 1.65; % methane in total gas (rumen fluid; 0.5 μg./ml.): 6.75%; Ac/Bu (rumen fluid; 0.5 μg./ml.): 4.03; Ac/Pr (rumen fluid; 0.5 μg./ml.): 1.61; % methane in total gas (rumen fluid; 1 μg./ml.): 5.62%; Ac/Bu (rumen fluid; 1 μg./ml.): 3.21; Ac/Pr (rumen fluid; 1 μg./ml.): 1.51; % methane in total gas (rumen fluid; 3 μg./ml.): 4.53%; Ac/Bu (rumen fluid; 3 μg./ml.): 3.39; Ac/Pr (rumen fluid; 3 μg./ml.): 1.54
